According to the supplement of paper PMC10307832:

What was measured:
Assay in all cases: relative viability (nuclei count vs DMSO), 5 days (fraction); higher = more cells survive
Zosuquidar + Alpelisib = compound: O[C@@H](COc1cccc2ncccc12)CN1CCN([C@@H]2c3ccccc3[C@@H]3[C@H](c4ccccc42)C3(F)F)CC1 [Zosuquidar] + Cc1nc(NC(=O)N2CCC[C@H]2C(N)=O)sc1-c1ccnc(C(C)(C)C(F)(F)F)c1 [Alpelisib] (partner 2 µM)
In short: (§1)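 Lung cancer cell lines, seeded in 1536-well plates, were treated the following day by pin tool with a single drug or with five library-drug doses (not always all listed) in √10 steps on top of a fixed anchor-drug dose. Cells were fixed and nuclei stained in one step after 5 days, and nuclei were counted. Relative viability is the nuclei count for treated wells divided by that for vehicle wells, reported as medians of duplicate plates.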

Cabozantinib + Dasatinib = compound: COc1cc2nccc(Oc3ccc(NC(=O)C4(C(=O)Nc5ccc(F)cc5)CC4)cc3)c2cc1OC [Cabozantinib] + Cc1nc(Nc2ncc(C(=O)Nc3c(C)cccc3Cl)s2)cc(N2CCN(CCO)CC2)n1 [Dasatinib] (partner 0.075 µM)
In short: as §1

Zosuquidar + Decitabine = compound: O[C@@H](COc1cccc2ncccc12)CN1CCN([C@@H]2c3ccccc3[C@@H]3[C@H](c4ccccc42)C3(F)F)CC1 [Zosuquidar] + Nc1ncn([C@H]2C[C@H](O)[C@@H](CO)O2)c(=O)n1 [Decitabine] (partner 2 µM)
In short: as §1

Zosuquidar + Vorinostat = compound: O[C@@H](COc1cccc2ncccc12)CN1CCN([C@@H]2c3ccccc3[C@@H]3[C@H](c4ccccc42)C3(F)F)CC1 [Zosuquidar] + O=C(CCCCCCC(=O)Nc1ccccc1)NO [Vorinostat] (partner 1 µM)
In short: as §1

Cell Line: UMC-11
- relative viability (Zosuquidar + Alpelisib; first compound 0.01 µM): 0.877
- relative viability (Zosuquidar + Alpelisib; first compound 0.03162 µM): 1.03
- relative viability (Zosuquidar + Alpelisib; first compound 0.1 µM): 0.973
- relative viability (Zosuquidar + Alpelisib; first compound 0.3162 µM): 1.02
- relative viability (Zosuquidar + Alpelisib; first compound 1 µM): 0.961
- relative viability (Cabozantinib + Dasatinib; first compound 0.02 µM): 0.494
- relative viability (Cabozantinib + Dasatinib; first compound 0.06325 µM): 0.492
- relative viability (Cabozantinib + Dasatinib; first compound 0.2 µM): 0.453
- relative viability (Cabozantinib + Dasatinib; first compound 0.6325 µM): 0.493
- relative viability (Cabozantinib + Dasatinib; first compound 2 µM): 0.452
- relative viability (Zosuquidar + Decitabine; first compound 0.01 µM): 0.567
- relative viability (Zosuquidar + Decitabine; first compound 0.03162 µM): 0.575
- relative viability (Zosuquidar + Decitabine; first compound 0.1 µM): 0.538
- relative viability (Zosuquidar + Decitabine; first compound 0.3162 µM): 0.666
- relative viability (Zosuquidar + Decitabine; first compound 1 µM): 0.59
- relative viability (Zosuquidar + Vorinostat; first compound 0.01 µM): 0.381
- relative viability (Zosuquidar + Vorinostat; first compound 0.03162 µM): 0.483
- relative viability (Zosuquidar + Vorinostat; first compound 0.1 µM): 0.505
- relative viability (Zosuquidar + Vorinostat; first compound 0.3162 µM): 0.432
- relative viability (Zosuquidar + Vorinostat; first compound 1 µM): 0.387
